The record followed here is publication PMC9805938 (Journal of Pharmaceutical Analysis, 2020).

This assay addresses T1, transforming growth factor-β receptor type-I (TGF-β RI) (Homo sapiens, UniProt P36897).
T1 sequence (P36897 34-503): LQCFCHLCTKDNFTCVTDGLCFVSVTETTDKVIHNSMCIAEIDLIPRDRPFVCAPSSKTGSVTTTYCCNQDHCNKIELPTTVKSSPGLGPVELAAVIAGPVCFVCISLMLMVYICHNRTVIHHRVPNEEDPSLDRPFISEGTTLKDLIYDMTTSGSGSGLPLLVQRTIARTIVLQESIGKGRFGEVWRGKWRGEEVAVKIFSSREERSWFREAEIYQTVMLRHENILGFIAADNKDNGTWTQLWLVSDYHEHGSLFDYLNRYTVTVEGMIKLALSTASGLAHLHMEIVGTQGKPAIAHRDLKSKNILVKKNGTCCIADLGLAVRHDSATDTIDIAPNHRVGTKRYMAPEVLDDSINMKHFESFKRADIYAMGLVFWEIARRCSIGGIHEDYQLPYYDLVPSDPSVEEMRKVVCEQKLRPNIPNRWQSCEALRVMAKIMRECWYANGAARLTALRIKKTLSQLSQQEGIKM
The format is biochemical.

For `Oc1ccc(/C=C/c2cc(O)cc(O)c2)cc1` [compound 12, Resveratrol], the half-inhibitory concentration (IC50) (usually the midpoint of a concentration-inhibition curve) is 2.21 ± 0.266 µM.
